Results on 13 molecules are retold here after ChEMBL document CHEMBL3991601, “The target landscape of clinical kinase drugs” (Science, 2017).

Active and inactive are the calls of the source. Where only a bound is given, the exact number is not on record here.

The target in experiment [1] is Ras-related protein Rab-6A (Homo sapiens, UniProt P20340).
The target of experiment [2] is Inosine-5'-monophosphate dehydrogenase 2 (Homo sapiens, UniProt P12268).
The target of experiment [3] is Mitogen-activated protein kinase 1 (Homo sapiens, UniProt P28482).
Experiment [4] addresses STE20-like serine/threonine-protein kinase (Homo sapiens, UniProt Q9H2G2).
For experiment [5], the target named is Protein-tyrosine kinase 2-beta (Homo sapiens, UniProt Q14289).
In experiment [6] the target is Casein kinase I isoform gamma-1 (Homo sapiens, UniProt Q9HCP0).
For experiment [7], the target named is Proto-oncogene tyrosine-protein kinase Src (Homo sapiens, UniProt P12931).
The target in experiment [8] is T1, Glycogen phosphorylase, brain form (Homo sapiens, UniProt P11216).
T1 sequence (P11216 whole entry): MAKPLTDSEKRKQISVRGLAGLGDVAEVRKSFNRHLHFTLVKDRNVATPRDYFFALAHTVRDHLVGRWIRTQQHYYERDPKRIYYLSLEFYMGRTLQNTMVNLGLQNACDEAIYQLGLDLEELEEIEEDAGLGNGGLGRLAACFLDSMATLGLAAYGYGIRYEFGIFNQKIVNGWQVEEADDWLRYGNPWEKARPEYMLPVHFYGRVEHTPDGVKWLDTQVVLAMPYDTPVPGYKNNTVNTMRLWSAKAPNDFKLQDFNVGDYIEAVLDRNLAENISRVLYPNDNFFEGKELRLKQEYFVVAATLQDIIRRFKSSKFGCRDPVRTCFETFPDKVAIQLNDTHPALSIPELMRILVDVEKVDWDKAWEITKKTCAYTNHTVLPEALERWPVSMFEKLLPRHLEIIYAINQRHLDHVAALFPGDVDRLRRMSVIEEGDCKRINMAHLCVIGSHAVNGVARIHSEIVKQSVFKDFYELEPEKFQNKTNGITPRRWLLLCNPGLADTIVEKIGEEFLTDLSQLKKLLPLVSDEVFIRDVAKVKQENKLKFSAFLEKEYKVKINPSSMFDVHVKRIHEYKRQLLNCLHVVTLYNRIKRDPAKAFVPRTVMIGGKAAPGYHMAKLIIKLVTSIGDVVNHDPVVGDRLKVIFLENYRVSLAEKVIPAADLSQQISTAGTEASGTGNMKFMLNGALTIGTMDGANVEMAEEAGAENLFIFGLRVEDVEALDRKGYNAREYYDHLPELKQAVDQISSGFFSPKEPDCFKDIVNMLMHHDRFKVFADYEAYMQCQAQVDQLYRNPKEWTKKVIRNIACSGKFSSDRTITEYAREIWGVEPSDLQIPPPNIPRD

Experiment [9] has as its target Serine/threonine-protein kinase SIK2 (Homo sapiens, UniProt Q9H0K1).
Experiment [10] addresses T2, Delta(24)-sterol reductase (Homo sapiens, UniProt Q15392).
T2 sequence (Q15392 whole entry): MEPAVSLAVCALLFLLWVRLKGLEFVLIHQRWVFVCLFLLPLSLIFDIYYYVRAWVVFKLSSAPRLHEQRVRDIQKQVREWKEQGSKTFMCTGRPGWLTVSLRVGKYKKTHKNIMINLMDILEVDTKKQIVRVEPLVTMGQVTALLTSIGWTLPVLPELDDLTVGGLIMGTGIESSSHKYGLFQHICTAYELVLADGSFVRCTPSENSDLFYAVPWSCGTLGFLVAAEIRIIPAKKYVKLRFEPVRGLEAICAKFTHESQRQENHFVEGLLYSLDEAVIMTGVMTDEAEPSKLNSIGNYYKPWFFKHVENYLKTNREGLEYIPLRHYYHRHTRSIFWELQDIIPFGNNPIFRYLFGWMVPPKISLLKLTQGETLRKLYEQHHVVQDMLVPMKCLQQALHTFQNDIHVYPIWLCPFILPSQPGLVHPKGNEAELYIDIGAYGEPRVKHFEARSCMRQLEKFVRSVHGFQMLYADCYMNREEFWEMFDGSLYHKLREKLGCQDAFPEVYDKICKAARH

Experiment [11] concerns the target Ribosomal protein S6 kinase beta-1 (Homo sapiens, UniProt P23443).
The target in a further experiment is GTP-binding protein 4 (Homo sapiens, UniProt Q9BZE4).
In a further experiment the target is T3, ADP/ATP translocase 2 (Homo sapiens, UniProt P05141).
T3 sequence (P05141 whole entry): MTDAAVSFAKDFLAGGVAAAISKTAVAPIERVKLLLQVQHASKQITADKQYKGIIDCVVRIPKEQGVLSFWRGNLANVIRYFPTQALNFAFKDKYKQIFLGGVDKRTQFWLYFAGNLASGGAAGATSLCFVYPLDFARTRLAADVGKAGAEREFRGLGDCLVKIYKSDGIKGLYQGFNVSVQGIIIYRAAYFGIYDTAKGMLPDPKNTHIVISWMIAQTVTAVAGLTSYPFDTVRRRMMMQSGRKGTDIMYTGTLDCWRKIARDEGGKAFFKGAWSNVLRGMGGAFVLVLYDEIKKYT

In experiment [12] the target is Glycogen synthase kinase-3 alpha (Homo sapiens, UniProt P49840).
Note: in the data inactive means no Kd found up to 30 µM.

Chain of Glycogen synthase kinase-3 alpha (P49840 whole entry): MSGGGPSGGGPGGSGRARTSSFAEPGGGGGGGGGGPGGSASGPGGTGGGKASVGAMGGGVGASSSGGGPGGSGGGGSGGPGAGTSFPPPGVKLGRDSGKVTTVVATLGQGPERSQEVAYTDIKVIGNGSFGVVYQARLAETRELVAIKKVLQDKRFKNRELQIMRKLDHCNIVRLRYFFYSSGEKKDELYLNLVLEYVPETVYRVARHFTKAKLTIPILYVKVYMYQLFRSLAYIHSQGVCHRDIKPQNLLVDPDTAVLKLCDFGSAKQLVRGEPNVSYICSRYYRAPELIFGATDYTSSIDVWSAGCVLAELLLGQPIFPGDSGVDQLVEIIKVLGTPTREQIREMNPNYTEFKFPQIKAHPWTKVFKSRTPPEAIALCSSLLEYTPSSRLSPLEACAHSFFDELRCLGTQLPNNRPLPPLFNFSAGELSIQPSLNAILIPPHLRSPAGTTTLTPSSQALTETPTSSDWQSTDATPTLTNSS
Chain of Serine/threonine-protein kinase SIK2 (Q9H0K1 whole entry): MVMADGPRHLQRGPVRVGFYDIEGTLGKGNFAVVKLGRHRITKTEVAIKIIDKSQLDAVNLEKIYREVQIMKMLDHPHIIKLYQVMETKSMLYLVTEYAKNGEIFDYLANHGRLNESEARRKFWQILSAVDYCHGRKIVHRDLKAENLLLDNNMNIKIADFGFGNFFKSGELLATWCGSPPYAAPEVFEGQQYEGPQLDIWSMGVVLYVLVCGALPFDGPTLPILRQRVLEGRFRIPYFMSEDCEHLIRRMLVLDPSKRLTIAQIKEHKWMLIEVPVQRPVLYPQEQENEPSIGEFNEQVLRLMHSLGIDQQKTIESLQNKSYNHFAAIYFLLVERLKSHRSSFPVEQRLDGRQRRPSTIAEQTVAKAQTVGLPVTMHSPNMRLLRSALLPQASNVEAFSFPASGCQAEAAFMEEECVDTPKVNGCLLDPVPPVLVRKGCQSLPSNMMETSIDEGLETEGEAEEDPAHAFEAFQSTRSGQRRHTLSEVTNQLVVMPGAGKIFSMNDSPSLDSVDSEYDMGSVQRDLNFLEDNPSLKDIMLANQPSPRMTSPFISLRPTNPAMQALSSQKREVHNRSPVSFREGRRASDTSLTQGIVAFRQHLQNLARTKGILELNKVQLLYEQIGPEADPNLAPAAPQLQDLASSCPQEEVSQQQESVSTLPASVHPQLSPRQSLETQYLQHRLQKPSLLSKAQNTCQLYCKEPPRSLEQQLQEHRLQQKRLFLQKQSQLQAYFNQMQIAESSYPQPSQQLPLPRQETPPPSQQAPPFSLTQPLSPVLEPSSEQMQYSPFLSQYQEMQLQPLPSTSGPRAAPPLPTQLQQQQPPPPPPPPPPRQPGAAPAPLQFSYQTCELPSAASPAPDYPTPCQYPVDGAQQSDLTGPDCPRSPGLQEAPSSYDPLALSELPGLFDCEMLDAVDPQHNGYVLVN
Chain of STE20-like serine/threonine-protein kinase (Q9H2G2 whole entry): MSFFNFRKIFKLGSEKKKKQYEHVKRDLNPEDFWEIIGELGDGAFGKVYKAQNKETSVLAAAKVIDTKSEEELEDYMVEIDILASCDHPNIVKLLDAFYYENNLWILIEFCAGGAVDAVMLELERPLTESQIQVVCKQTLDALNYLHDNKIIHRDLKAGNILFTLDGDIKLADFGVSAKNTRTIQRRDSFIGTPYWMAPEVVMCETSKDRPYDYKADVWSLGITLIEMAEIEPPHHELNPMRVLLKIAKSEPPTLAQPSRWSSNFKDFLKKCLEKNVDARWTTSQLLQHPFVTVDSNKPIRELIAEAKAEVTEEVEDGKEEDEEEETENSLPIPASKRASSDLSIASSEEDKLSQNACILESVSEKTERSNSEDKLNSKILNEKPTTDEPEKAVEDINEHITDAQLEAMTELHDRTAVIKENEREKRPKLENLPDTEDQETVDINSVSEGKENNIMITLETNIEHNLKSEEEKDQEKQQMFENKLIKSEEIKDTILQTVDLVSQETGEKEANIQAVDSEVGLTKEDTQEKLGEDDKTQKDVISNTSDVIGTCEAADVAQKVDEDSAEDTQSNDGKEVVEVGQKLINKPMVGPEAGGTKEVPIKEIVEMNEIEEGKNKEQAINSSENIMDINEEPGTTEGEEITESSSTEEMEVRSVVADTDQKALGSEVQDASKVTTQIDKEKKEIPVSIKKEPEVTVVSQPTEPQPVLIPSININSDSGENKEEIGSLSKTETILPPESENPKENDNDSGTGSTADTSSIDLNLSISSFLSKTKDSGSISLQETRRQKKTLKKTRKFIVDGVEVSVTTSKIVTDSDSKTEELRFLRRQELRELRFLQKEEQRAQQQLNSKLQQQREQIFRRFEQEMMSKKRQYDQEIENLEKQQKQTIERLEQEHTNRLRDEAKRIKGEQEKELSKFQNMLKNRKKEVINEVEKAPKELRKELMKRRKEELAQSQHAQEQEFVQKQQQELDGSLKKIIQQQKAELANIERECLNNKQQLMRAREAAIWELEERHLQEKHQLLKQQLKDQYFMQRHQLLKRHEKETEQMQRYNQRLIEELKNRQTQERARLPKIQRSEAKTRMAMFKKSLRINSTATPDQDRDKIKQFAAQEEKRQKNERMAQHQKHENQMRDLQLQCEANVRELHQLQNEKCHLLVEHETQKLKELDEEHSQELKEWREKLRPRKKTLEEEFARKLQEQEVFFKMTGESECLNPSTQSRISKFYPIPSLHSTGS
Chain of Protein-tyrosine kinase 2-beta (Q14289 whole entry, canonical isoform): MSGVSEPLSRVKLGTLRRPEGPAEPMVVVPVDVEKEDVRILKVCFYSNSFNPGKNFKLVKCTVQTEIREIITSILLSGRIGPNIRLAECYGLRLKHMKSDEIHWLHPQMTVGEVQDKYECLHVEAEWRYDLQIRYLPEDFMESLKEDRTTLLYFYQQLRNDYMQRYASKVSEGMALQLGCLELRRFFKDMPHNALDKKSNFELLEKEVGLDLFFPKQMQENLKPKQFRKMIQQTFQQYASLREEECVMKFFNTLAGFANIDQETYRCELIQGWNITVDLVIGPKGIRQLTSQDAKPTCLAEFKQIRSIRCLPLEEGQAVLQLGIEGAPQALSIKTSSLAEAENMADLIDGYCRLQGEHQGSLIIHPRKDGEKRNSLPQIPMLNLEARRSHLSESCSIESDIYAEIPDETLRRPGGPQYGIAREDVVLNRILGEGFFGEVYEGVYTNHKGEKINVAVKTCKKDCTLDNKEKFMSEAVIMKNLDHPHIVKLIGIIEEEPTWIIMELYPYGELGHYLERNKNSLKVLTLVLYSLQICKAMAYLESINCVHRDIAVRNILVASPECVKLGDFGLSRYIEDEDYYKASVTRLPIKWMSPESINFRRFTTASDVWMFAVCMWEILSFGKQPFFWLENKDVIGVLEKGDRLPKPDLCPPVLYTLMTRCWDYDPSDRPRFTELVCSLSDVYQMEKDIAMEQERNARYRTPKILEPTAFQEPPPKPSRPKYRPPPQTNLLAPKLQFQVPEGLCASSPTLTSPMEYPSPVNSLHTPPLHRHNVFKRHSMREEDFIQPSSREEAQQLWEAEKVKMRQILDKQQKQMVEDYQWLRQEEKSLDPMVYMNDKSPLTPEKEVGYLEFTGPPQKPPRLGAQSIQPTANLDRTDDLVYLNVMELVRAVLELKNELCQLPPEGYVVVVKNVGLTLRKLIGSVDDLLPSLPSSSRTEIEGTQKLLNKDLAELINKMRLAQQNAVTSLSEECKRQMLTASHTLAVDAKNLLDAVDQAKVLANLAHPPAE
Chain of Ribosomal protein S6 kinase beta-1 (P23443 whole entry): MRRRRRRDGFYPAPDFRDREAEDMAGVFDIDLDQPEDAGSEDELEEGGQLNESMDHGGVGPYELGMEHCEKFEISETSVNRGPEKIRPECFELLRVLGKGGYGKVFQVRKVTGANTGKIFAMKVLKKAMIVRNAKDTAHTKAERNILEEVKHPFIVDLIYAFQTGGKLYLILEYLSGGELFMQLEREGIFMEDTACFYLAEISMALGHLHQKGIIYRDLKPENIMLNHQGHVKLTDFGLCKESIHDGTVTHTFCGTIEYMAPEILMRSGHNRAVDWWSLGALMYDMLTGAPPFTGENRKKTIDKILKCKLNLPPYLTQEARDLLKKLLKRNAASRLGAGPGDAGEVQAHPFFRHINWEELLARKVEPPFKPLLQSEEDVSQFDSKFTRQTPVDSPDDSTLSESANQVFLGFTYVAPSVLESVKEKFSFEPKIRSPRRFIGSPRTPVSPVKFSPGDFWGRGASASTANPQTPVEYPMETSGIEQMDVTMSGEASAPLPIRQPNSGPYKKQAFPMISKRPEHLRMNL
Chain of Proto-oncogene tyrosine-protein kinase Src (P12931 2-536 limits assumed): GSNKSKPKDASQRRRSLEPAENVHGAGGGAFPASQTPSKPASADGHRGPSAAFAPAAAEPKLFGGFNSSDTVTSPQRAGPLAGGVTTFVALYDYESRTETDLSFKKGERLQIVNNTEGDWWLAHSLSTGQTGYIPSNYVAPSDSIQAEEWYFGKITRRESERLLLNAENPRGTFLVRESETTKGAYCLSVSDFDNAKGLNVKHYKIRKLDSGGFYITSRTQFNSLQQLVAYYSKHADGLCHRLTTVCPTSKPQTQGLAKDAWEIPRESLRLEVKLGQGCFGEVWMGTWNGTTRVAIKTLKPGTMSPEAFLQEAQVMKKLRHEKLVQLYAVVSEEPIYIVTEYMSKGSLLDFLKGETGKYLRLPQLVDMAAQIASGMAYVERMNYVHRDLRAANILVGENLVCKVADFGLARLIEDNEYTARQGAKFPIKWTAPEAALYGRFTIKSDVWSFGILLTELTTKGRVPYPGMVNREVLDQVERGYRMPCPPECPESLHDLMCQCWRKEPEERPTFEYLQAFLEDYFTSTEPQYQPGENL
Chain of Mitogen-activated protein kinase 1 (P28482 whole entry): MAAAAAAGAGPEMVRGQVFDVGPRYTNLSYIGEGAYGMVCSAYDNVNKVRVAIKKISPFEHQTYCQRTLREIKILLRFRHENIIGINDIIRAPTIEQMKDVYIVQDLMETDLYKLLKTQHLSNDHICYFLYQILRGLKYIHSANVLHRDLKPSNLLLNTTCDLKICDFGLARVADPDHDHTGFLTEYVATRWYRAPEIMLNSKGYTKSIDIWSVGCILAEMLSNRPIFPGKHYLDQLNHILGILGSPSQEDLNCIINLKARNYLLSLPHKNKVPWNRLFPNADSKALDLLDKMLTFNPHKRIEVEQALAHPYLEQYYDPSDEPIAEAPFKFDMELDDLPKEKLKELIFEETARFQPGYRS

As to `C=CCn1c(=O)c2cnc(Nc3ccc(N4CCN(C)CC4)cc3)nc2n1-c1cccc(C(C)(C)O)n1` [ADAVOSERTIB], the Kd in experiment [1], in experiment [2], in [3], in experiment [4], in experiment [5] and in experiment [6] was > 30 µM (inactive) in each case. Besides, the Kd (in experiment [7]; in experiment [8]; in [9]; in [10]; in [11]; at GTP-binding protein 4) was > 30 µM (inactive) in each case. In addition, the Kd at ADP/ATP translocase 2 is > 30 µM (inactive).
For the molecule `CC1(C)CNc2cc(NC(=O)c3cccnc3NCc3ccncc3)ccc21` [MOTESANIB], the Kd (in experiment [1]; in [2]; in [4]; in experiment [8]; in experiment [10]; on GTP-binding protein 4) was > 30 µM (inactive) each time. Moreover, at ADP/ATP translocase 2, the Kd is > 30 µM (inactive).
Turning to `COc1cc2c(N3CCN(C(=O)Nc4ccc(OC(C)C)cc4)CC3)ncnc2cc1OCCCN1CCCCC1` [TANDUTINIB], the Kd (in experiment [1]; in experiment [8]; in experiment [10]; on GTP-binding protein 4; at ADP/ATP translocase 2) was > 30 µM (inactive) each time.
With `CCN(CCCOc1ccc2c(Nc3cc(CC(=O)Nc4cccc(F)c4)n[nH]3)ncnc2c1)CCOP(=O)(O)O` [BARASERTIB], the Kd was 0.033 µM in experiment [1]; > 30 µM (inactive) in experiment [2]; > 30 µM (inactive) in experiment [3]; > 30 µM (inactive) in [4]; > 30 µM (inactive) in [5]; > 30 µM (inactive) in experiment [6]. In addition, the Kd (in [7]; in experiment [8]; in [10]; in experiment [11]; on GTP-binding protein 4; at ADP/ATP translocase 2) was > 30 µM (inactive) each time.
On to `N#CCNC(=O)c1ccc(-c2ccnc(Nc3ccc(N4CCOCC4)cc3)n2)cc1` [MOMELOTINIB], for which the Kd in experiment [1], in [2], in experiment [3], in experiment [12], in [7] and in experiment [8] was > 30 µM (inactive) in each case. In addition, the Kd in experiment [9] was 0.79 µM (active); in [10], > 30 µM (inactive); in experiment [11] it was > 30 µM (inactive); at GTP-binding protein 4, > 30 µM (inactive); at ADP/ATP translocase 2 it was > 30 µM (inactive).
Take `CN(C)C/C=C/C(=O)Nc1cc2c(Nc3ccc(F)c(Cl)c3)ncnc2cc1O[C@H]1CCOC1` [AFATINIB]: the Kd (in experiment [1]; in experiment [2]; in [8]; in experiment [10]; at GTP-binding protein 4; at ADP/ATP translocase 2) was > 30 µM (inactive) in each case.
Consider `Cn1cnc2c(F)c(Nc3ccc(Br)cc3Cl)c(C(=O)NOCCO)cc21` [SELUMETINIB], for which the Kd (in [1]; in experiment [2]; in [8]; in [10]; on GTP-binding protein 4; at ADP/ATP translocase 2) was > 30 µM (inactive) each time.
Consider `Cn1c(=O)n(-c2ccc(C(C)(C)C#N)cc2)c2c3cc(-c4cnc5ccccc5c4)ccc3ncc21` [DACTOLISIB], for which the Kd in experiment [1], in experiment [2], in experiment [3], in [4], in [5] and in [6] was > 30 µM (inactive) throughout. In addition, the Kd (in [7]; in experiment [8]; in [9]; in experiment [10]; on GTP-binding protein 4; at ADP/ATP translocase 2) was > 30 µM (inactive) in each case.
Turning to `CC(C)CC(=O)Nc1[nH]nc2c1CN(C(=O)C1CCN(C)CC1)C2(C)C` [PHA-793887], the Kd is > 30 µM (inactive) in experiment [1]; > 30 µM (inactive) in experiment [2]; > 30 µM (inactive) in [4]; 0.029 µM (active) in [12]; > 30 µM (inactive) in [5]; > 30 µM (inactive) in experiment [7]. Also, the Kd (in experiment [8]; in experiment [9]; in experiment [10]; in experiment [11]; at GTP-binding protein 4; at ADP/ATP translocase 2) was > 30 µM (inactive) throughout.
Turning to `COc1cc2c(Oc3ccc4[nH]c(C)cc4c3F)ncnc2cc1OCCCN1CCCC1` [CEDIRANIB], the Kd (in [1]; in [2]; in experiment [7]; in experiment [8]; in experiment [10]; on GTP-binding protein 4) was > 30 µM (inactive) throughout. At ADP/ATP translocase 2, the Kd was > 30 µM (inactive).
As for `C[C@]1(O)C[C@@H](c2nc(-c3ccc4ccc(-c5ccccc5)nc4c3)c3c(N)nccn32)C1` [LINSITINIB], the Kd in experiment [1], in experiment [2], in experiment [5], in experiment [8], in [9] and in experiment [10] was > 30 µM (inactive) in each case. For the same molecule, the Kd at GTP-binding protein 4 and at ADP/ATP translocase 2 was > 30 µM (inactive) each time.
For `CN(c1ncccc1CNc1nc(Nc2ccc3c(c2)CC(=O)N3)ncc1C(F)(F)F)S(C)(=O)=O` [PF-00562271], the Kd was > 30 µM (inactive) in experiment [1]; > 30 µM (inactive) in experiment [2]; 1.24 µM (active) in [3]; 0.845 µM (active) in experiment [12]; > 30 µM (inactive) in experiment [8]; > 30 µM (inactive) in [10]. The Kd on GTP-binding protein 4 and on ADP/ATP translocase 2 was > 30 µM (inactive) in each case.
As to `C[C@@]1(C(=O)Nc2ccc(F)nc2)CCCN1c1nc(Nc2cc(C3CC3)n[nH]2)c2cccn2n1` [BMS-754807], the Kd (in [1]; in [2]; in experiment [8]; in [10]; on GTP-binding protein 4; at ADP/ATP translocase 2) was > 30 µM (inactive) throughout.
